Patent publication US9572820B2, “Methods of treating autophagy-associated disorders and related pharmaceutical compositions, diagnostics, screening techniques and kits” (priority 2011, dated 2017)

Legend:
[1] = test system: pro-IL-1β; assay: Expression of pro-IL-1β in BMMs; assay type: cell-based, murine; details: cells treated with bafilomycin A1 or CA-074 Me
Procedure: To induce pro-IL-1β expression, cells were pretreated overnight with 100 ng/ml LPS (Sigma). Inflammasome was induced with […] nigericin (Sigma) for 1 h or with […] Alum (Thermoscientific) for 1 h or with […] silica crystals (MIN-U-SIL-15, US Silica) for 1 h or with […] Amyloid-b peptide (Ab; American Peptide Company) fibrils prepared as described (Moore et al, 2002). […] Starvation and other treatments (except for macrophage priming with LPS done in advance) were carried out concurrently (i.e., initiated at the same time).
For all conditions, cell-free supernatants were assayed by immunoblotting after TCA precipitation for mouse IL-1β p17 (R&D), caspase-1 p10 (Santa Cruz Biotechnology), HMGB1 (Abcam) and Cathepsin B (R&D) or by ELISA for mouse IL-1β (R&D), IL-18 (MBL), and HMGB1 (IBL). Immunofluorescence confocal microscopy was carried out using a Zeiss LSM 510 Meta microscope (laser wavelengths 488, 543, and 633 nm). Antibodies against endogenous proteins IL-1β (Abcam), Sec6 (Shu C Hsu, Rutgers University, NJ, USA), Cathepsin B (R&D), Rab8a (Abcam), GORASP1 (Novus), GORASP2 (ProteinTech Group), GM130 (BD), LC3 (MBL) and GFP (Abcam; for BMMs from GFP-LC3 knock-in transgenic mice) were used for indirect immunofluorescence analysis. […]

[2] = test system: IL-1β; assay: IL-1β secretion from LPS-pretreated BMMs (ELISA); assay type: cell-based, murine; details: nigericin, 100 nM bafilomycin A1, 1 h
Procedure: FIG. 1X3. induction of autophagy enhances IL-1β secretion. (A) Atg5fl/fl Cre^− and Atg^5fl/fl Cre^+ bone marrow-derived macrophages (BMMs), pretreated overnight with 100 ng/ml LPS, were stimulated for 1 h with the inflammasome agonist nigericin ([…]) with (Starvation; EBSS) or without (Full; full medium) autophagic induction. Cell culture supernatants were assayed for murine IL-1β by ELISA. Data represent mean values±s.d. (nX3); *Po0.05. (B) LPS-pretreated Atg5fl/fl Cre^− and Atg^5fl/fl Cre^+ BMMs were stimulated with […] nigericin for 1 h in OptiMEM and the release of active caspase-1 and IL-1β was determined by immunoblotting. (C) As in (A), assayed for IL-18. Data represent mean values±s.d. (nX3); *Po0.05. (D) LPS-pretreated BMMs were exposed to alum ([…]) for 1 h with or without autophagic induction by starvation. Secreted IL-1β was measured as in (A). Data represent mean values±s.d. (nX3); *Po0.05. (E) LPS-pretreated BMMs were exposed to silica ([…]) for 1 h with or without autophagic induction by starvation. Secreted IL-1β was measured as in (A). Data represent mean values±s.d. (nX3); *Po0.05. (F) BMMs were transfected with scramble (Scr) control siRNA or siRNAs against ASC and NLRP3. After 48 h following transfection, cells were treated overnight with LPS and subjected to nigericin ([…]) and starvation for 1 h. Data represent mean values±s.d. (nX3); *Po0.05. (G) Immunoblot analysis of ASC and NLRP3 knockdowns. (H) BMMs were transfected with scramble
FIG. 2X3 Autophagic pathway progression promotes secretion of inflammasome substrates. (A, B) LPS-pretreated BMMs were treated with […] nigericin (Nig) and 100 nM bafilomycin A1 (Baf) with (Starvation) or without (Full) autophagic induction for 1 h and secreted IL-1β (A) and IL-18 (B) were measured. Data represent mean values+s.d. (nX3); *Po0.05. (C) LPS-pretreated BMMs were treated with […] of silica and 100 nM bafilomycin A1 (Baf) with (Starvation) or without (Full) autophagic induction for 1 h and secreted IL-1β were measured. Data represent mean values±s.d. (nX3); *Po0.05. (D) Colocalization of cathepsin B with the basal autophagic machinery factor LC3 and IL-1b. Fluorescence; LC3 (green, Alexa488), IL-1β (red, Alexa568), and cathepsin B (blue, Alexa633). BMMs from GFP-LC3 knockin mice were treated with LPS and then analysed for immunofluorescence. (E) Colocalization line tracing analysis from images in (D). (F) LPS-pretreated BMMs were treated with […] nigericin and cathepsin B inhibitor CA-074 Me […] , with (Starvation) or without (Full) autophagic induction, for 1 h and secreted IL-1β was measured. […] (G) LPS-pretreated Atg^5fl/fl Cr^+ and Atg^5fl/fl Cre^− BMMs were stimulated with […] nigericin for 1 h in OptiMEM and release of cathepsin B was determined by immunoblotting. […]

CO/C1=C\C(C)=C\[C@@H](C)[C@@H](O)[C@@H](C)C/C(C)=C/C=C/[C@H](OC)[C@@H]([C@@H](C)[C@@H](O)[C@H](C)[C@@]2(O)C[C@@H](O)[C@H](C)[C@@H](C(C)C)O2)OC1=O [bafilomycin A1]
expression of pro-IL-1β [1]: No differences
IL-1β secretion ([2]; basal autophagy only (full medium)): no change
IL-1β secretion ([2]; starvation): decreased IL-1β secretion
